Reference: patent US4888357A, “Antiarthritic β-cycloalkyl-β-oxopropionitriles” (Bristol-Myers Company, priority 1988, dated 1989)
Like-named read-outs stand apart in the source and are kept apart here.

Tests used:
[1] = system: adjuvant-induced arthritis; conditions: J. Med. Chem., 1979, 22:1385-9; cited from earlier work
[2] = system: adjuvant-induced polyarthritis (hind paw volume); assay: Modified developing adjuvant arthritis in rats (adjuvant-induced polyarthritis, AIP); type: in vivo, male Lewis rats; conditions: for inhibition in vivo at 100 mg/kg: 100 mg/kg once daily p.o. d. 1-8
Method: A. Modified Developing Adjuvant Arthritis in Rats
This test is based on the procedure originally described by Pearson (Proc. Soc. Biol. Med., 1956, pp 91-5). Each experimental group used six male Lewis rats weighing approx. 250 gm. Arthritis was produced by a single intradermal injection of Mycobacterium butyricum (0.6 mg in 0.1 ml mineral oil) into the base of the tail. Test compounds were administered orally, once daily, starting on the day of inoculation (day 1) through day 8. The initial dosage was reduced during this period when side effects were observed. The paw volume (average of two hind paws) was measured by the merccury displacement method at least twice weekly during the course of the experiment (40 to 42 days). The efficacy of a compound was expressed as the percent reduction of hind paw volume of treated vs. untreated rats using the following equation: [formula]
^a once daily, p.o., from d. 1-8 (unless otherwise specified).
^b % Inhibition of paw edema: 0 = <25; + = 25- <40; ++ = 40-<60; +++

[3] = system: delayed-type hypersensitivity (DTH) response; assay: Delayed type hypersensitivity (DTH) response to Mycobacterium butyricum challenge in rats; type: in vivo, male Lewis rats
Method: C. Delayed Type Hypersensitivity (DTH)
Male Lewis rats were immunized on Day 1. Mycobacterium butyricum in mineral oil (6 mg/ml) was injected into the base of the tail at 0.1 ml per rat. A negative control group receiving an equal amount of mineral oil was included. Drug therapy was administered orally from day one to day eight. Delayed type hypersensitivity was tested on day 9. Purified protein derivative (Tuberculin PPD, Statens Seruminstitute, Tuberculin Department, DK-2300 Copenhagen S, Denmark) was dissolved in phosphate buffered saline at 2.5 mg/ml. Twenty μl (50 μg) of the PPD solution was injected intradermally into the right ear of the rat, and the conralateral ear received 20 μl of the phosphate buffered saline vehicle. Forty-eight hours after injection the thickness of both ears was measured to the nearest 0.01 mm using a hand held caliper. The difference between the thickness of right and left ears was defined as the delta value for each rat. Group means and standard errors were compared using a Dunnett's 2-tail test.

[4] = Rattus norvegicus, po, 480 h, read d. 20-22, read-out: AIP Inhib. score (% Inhibition of paw edema) d. 20-22
[5] = Rattus norvegicus, po, 960 h, read d. 40-42, read-out: AIP Inhib. score (% Inhibition of paw edema) d. 40-42

Row | Compound | inhibition in vivo at 100 mg/kg [2, 4] [%] | inhibition in vivo at 100 mg/kg [2, 5] [%] | other results
1 | N#CCC(=O)c1ccccc1 [Benzoylacetonitrile (I), Benzoylacetonitrile] |  |  | inhibition of adjuvant-induced arthritis in rats [1]: effective inhibitors of adjuvant-induced arthritis in rats
2 | CNC(=O)C(C#N)C(=O)C1CC1 (stereo not drawn) [Example 1, β-Cyclopropyl-β-oxo-α-methylcarbamoylpropionitrile] | 80 to 100 | 80 to 100 | % Reduction-DTH ([3]; 10 mg/kg/d × 8 d. p.o.): 20%; % Reduction-DTH ([3]; 30 mg/kg/d × 8 d. p.o.): 41%; % Reduction-DTH ([3]; 60 mg/kg/d × 8 d. p.o.): 56%; immunomodulating activity (ability to reduce delayed hypersensitivity) ([3]; arthritic rats): exhibits immunomodulating activity
3 | CN(C)C(=O)C(C#N)C(=O)C1CC1 (stereo not drawn) [Example 3, β-Cyclopropyl-α-dimethylcarbamoyl-β-oxopropionitrile] | 60 to 80 | 60 to 80 | 
4 | C#CCNC(=O)C(C#N)C(=O)C1CC1 (stereo not drawn) [Example 4, β-Cyclopropyl-β-oxo-α-propargylcarbamoylpropionitrile] |  |  | AIP Inhib. score (% Inhibition of paw edema) d. 40-42 ([2]; 50 mg/kg once daily p.o. d. 1-8, read d. 40-42): ++ +; inhibition in vivo at 50 mg/kg ([2]; Rattus norvegicus, po, 480 h, 50 mg/kg once daily p.o. d. 1-8, read d. 20-22, read-out: AIP Inhib. score (% Inhibition of paw edema) d. 20-22): 60 to 80%
5 | N#CC(C(=O)NC1CCC1)C(=O)C1CC1 (stereo not drawn) [Example 6, α-Cyclobutylcarbamoyl-β-cyclopropyl-β-oxopropionitrile] | 25 to 40 | 25 to 40 | 
6 | CNC(=O)C(C#N)C(=O)C1CCC1 (stereo not drawn) [Example 7, β-Cyclobutyl-β-oxo-α-methylcarbamoylpropionitrile] | < 25 | 25 to 40 | 
